Results as given in patent US20130157954A1, “METHODS FOR TREATMENT OR PROPHYLAXIS OF KIDNEY OR LIVER DYSFUNCTION” (NPS PHARMACEUTICALS, INC., priority 2010, published 2013).

Assay: Example 1: kidney biomarkers (urea nitrogen, creatinine, GFR) in short bowel syndrome patients, every four weeks for 24 weeks; also sorted by >5% change from baseline
Assay type: in vivo, Human
Set-up: CREATININE (RATE BLANKED) Change from Baseline Median / GFR Median / GFR Change from Baseline Median / UREA NITROGEN Median / UREA NITROGEN Change from Baseline Median: unit not given here
Conditions: 0.05 mg/kg/day
Procedure: Human patients with short bowel syndrome were divided into three groups: a control group (16 total individuals) to receive placebo, an experimental group (35 total individuals) to receive teduglutide at 0.05 mg/kg/day throughout the study, and an experimental group (32 total individuals) to receive teduglutide at 0.1 mg/kg/day throughout the study. Patients were treated by subcutaneous injection of placebo or the appropriate dose of teduglutide. As individuals with short bowel syndrome are likely to experience associated liver and kidney disease, known biomarkers of liver and kidney function were monitored every four weeks, for 24 weeks. The liver biomarkers tested included total bilirubin, ALT and AST and ALP. The kidney biomarkers tested included urea nitrogen, creatinine and GFR. Before administration of placebo or teduglutide, diagnostic biomarker levels were tested to establish a baseline for each individual.
To visualize the effect of GLP-2 on the levels of the diagnostic biomarkers, the average change from baseline was calculated for the placebo and teduglutide treated groups for each visit after a baseline was established. The average change from baseline of each group is depicted in FIGS. 1-7. The numerical figures for each diagnostic biomarker at each time point are depicted in Table 1.
The raw data for this sorting is reproduced in Table 2 below.

## CC[C@H](C)[C@H](NC(=O)[C@H](Cc1ccccc1)NC(=O)[C@H](CC(=O)O)NC(=O)[C@H](CCCNC(=N)N)NC(=O)[C@H](C)NC(=O)[C@H](C)NC(=O)[C@H](CC(C)C)NC(=O)[C@H](CC(N)=O)NC(=O)[C@H](CC(=O)O)NC(=O)[C@H](CC(C)C)NC(=O)[C@@H](NC(=O)[C@@H](NC(=O)[C@H](CC(N)=O)NC(=O)[C@H](CCSC)NC(=O)[C@H](CCC(=O)O)NC(=O)[C@H](CC(=O)O)NC(=O)[C@H](CO)NC(=O)[C@H](Cc1ccccc1)NC(=O)[C@H](CO)NC(=O)CNC(=O)[C@H](CC(=O)O)NC(=O)CNC(=O)[C@@H](N)Cc1c[nH]cn1)[C@@H](C)O)[C@@H](C)CC)C(=O)N[C@@H](CC(N)=O)C(=O)N[C@@H](Cc1c[nH]c2ccccc12)C(=O)N[C@@H](CC(C)C)C(=O)N[C@H](C(=O)N[C@@H](CCC(N)=O)C(=O)N[C@H](C(=O)N[C@@H](CCCCN)C(=O)N[C@H](C(=O)N[C@H](C(=O)N[C@@H](CC(=O)O)C(=O)O)[C@@H](C)O)[C@@H](C)CC)[C@@H](C)O)[C@@H](C)CC [teduglutide]
DW4
  CREATININE (RATE BLANKED) Change from Baseline Median: 1.5
  CREATININE (RATE BLANKED) Median: 80 µmol/L
  GFR Change from Baseline Median: −0.6
  GFR Median: 77.0
  UREA NITROGEN Change from Baseline Median: −0.4
  UREA NITROGEN Median: 4.9
DW8
  CREATININE (RATE BLANKED) Change from Baseline Median: 0.0
  CREATININE (RATE BLANKED) Median: 71 µmol/L
  GFR Change from Baseline Median: 1.1
  UREA NITROGEN Change from Baseline Median: −0.3
  UREA NITROGEN Median: 5.2
DW12
  CREATININE (RATE BLANKED) Change from Baseline Median: 8.0
  CREATININE (RATE BLANKED) Median: 80 µmol/L
  GFR Change from Baseline Median: −5.0
  UREA NITROGEN Change from Baseline Median: −0.5
  UREA NITROGEN Median: 4.4
DW16
  CREATININE (RATE BLANKED) Change from Baseline Median: 0.0
  CREATININE (RATE BLANKED) Median: 79 µmol/L
  GFR Change from Baseline Median: 0.9
  UREA NITROGEN Change from Baseline Median: −0.3
  UREA NITROGEN Median: 4.4
DW20
  CREATININE (RATE BLANKED) Change from Baseline Median: 0.0
  GFR Change from Baseline Median: 0.9
  GFR Median: 74.0
  UREA NITROGEN Change from Baseline Median: −0.3
  UREA NITROGEN Median: 5.2
DW 24
  CREATININE (RATE BLANKED) Change from Baseline Median: −0.5
  CREATININE (RATE BLANKED) Median: 80 µmol/L
  GFR Change from Baseline Median: 1.7
  UREA NITROGEN Change from Baseline Median: −0.7
  UREA NITROGEN Median: 4.9
Week 4
  CREATININE (RATE BLANKED) change from baseline <−5%, number of patients: 7
  CREATININE (RATE BLANKED) change from baseline <−5%, percent of patients: (20.0%)
  CREATININE (RATE BLANKED) change from baseline >5%, number of patients: 14
  CREATININE (RATE BLANKED) change from baseline >5%, percent of patients: (40.0%)
  CREATININE (RATE BLANKED) change from baseline −5% <= and <=5%, number of patients: 9
  CREATININE (RATE BLANKED) change from baseline −5% <= and <=5%, percent of patients: (25.7%)
  GFR change from baseline <−5%, number of patients: 13
  GFR change from baseline <−5%, percent of patients: (37.1%)
  GFR change from baseline >5%, number of patients: 8
  GFR change from baseline >5%, percent of patients: (22.9%)
  GFR change from baseline −5% <= and <=5%, number of patients: 9
  GFR change from baseline −5% <= and <=5%, percent of patients: (25.7%)
  UREA NITROGEN change from baseline <−5%, number of patients: 16
  UREA NITROGEN change from baseline <−5%, percent of patients: (45.7%)
  UREA NITROGEN change from baseline >5%, number of patients: 7
  UREA NITROGEN change from baseline >5%, percent of patients: (20.0%)
  UREA NITROGEN change from baseline −5% <= and <=5%, number of patients: 7
  UREA NITROGEN change from baseline −5% <= and <=5%, percent of patients: (20.0%)
Week 8
  CREATININE (RATE BLANKED) change from baseline <−5%, number of patients: 11
  CREATININE (RATE BLANKED) change from baseline <−5%, percent of patients: (31.4%)
  CREATININE (RATE BLANKED) change from baseline >5%, number of patients: 10
  CREATININE (RATE BLANKED) change from baseline >5%, percent of patients: (28.6%)
  CREATININE (RATE BLANKED) change from baseline −5% <= and <=5%, number of patients: 8
  CREATININE (RATE BLANKED) change from baseline −5% <= and <=5%, percent of patients: (22.9%)
  GFR change from baseline <−5%, number of patients: 9
  GFR change from baseline <−5%, percent of patients: (25.7%)
  GFR change from baseline >5%, number of patients: 12
  GFR change from baseline >5%, percent of patients: (34.3%)
  GFR change from baseline −5% <= and <=5%, number of patients: 7
  GFR change from baseline −5% <= and <=5%, percent of patients: (20.0%)
  UREA NITROGEN change from baseline <−5%, number of patients: 14
  UREA NITROGEN change from baseline <−5%, percent of patients: (40.0%)
  UREA NITROGEN change from baseline >5%, number of patients: 10
  UREA NITROGEN change from baseline >5%, percent of patients: (28.6%)
  UREA NITROGEN change from baseline −5% <= and <=5%, number of patients: 5
  UREA NITROGEN change from baseline −5% <= and <=5%, percent of patients: (14.3%)
Week 12
  CREATININE (RATE BLANKED) change from baseline <−5%, number of patients: 7
  CREATININE (RATE BLANKED) change from baseline <−5%, percent of patients: (20.0%)
  CREATININE (RATE BLANKED) change from baseline >5%, number of patients: 16
  CREATININE (RATE BLANKED) change from baseline >5%, percent of patients: (45.7%)
  CREATININE (RATE BLANKED) change from baseline −5% <= and <=5%, number of patients: 4
  CREATININE (RATE BLANKED) change from baseline −5% <= and <=5%, percent of patients: (11.4%)
  GFR change from baseline <−5%, number of patients: 15
  GFR change from baseline <−5%, percent of patients: (42.9%)
  GFR change from baseline >5%, number of patients: 6
  GFR change from baseline >5%, percent of patients: (17.1%)
  GFR change from baseline −5% <= and <=5%, number of patients: 5
  GFR change from baseline −5% <= and <=5%, percent of patients: (14.3%)
  UREA NITROGEN change from baseline <−5%, number of patients: 17
  UREA NITROGEN change from baseline <−5%, percent of patients: (48.6%)
  UREA NITROGEN change from baseline >5%, number of patients: 6
  UREA NITROGEN change from baseline >5%, percent of patients: (17.1%)
  UREA NITROGEN change from baseline −5% <= and <=5%, number of patients: 4
  UREA NITROGEN change from baseline −5% <= and <=5%, percent of patients: (11.4%)
Week 16
  CREATININE (RATE BLANKED) change from baseline <−5%, number of patients: 8
  CREATININE (RATE BLANKED) change from baseline <−5%, percent of patients: (22.9%)
  CREATININE (RATE BLANKED) change from baseline >5%, number of patients: 8
  CREATININE (RATE BLANKED) change from baseline >5%, percent of patients: (22.9%)
  CREATININE (RATE BLANKED) change from baseline −5% <= and <=5%, number of patients: 12
  CREATININE (RATE BLANKED) change from baseline −5% <= and <=5%, percent of patients: (34.3%)
  GFR change from baseline <−5%, number of patients: 7
  GFR change from baseline <−5%, percent of patients: (20.0%)
  GFR change from baseline >5%, number of patients: 11
  GFR change from baseline >5%, percent of patients: (31.4%)
  GFR change from baseline −5% <= and <=5%, number of patients: 10
  GFR change from baseline −5% <= and <=5%, percent of patients: (28.6%)
  UREA NITROGEN change from baseline <−5%, number of patients: 12
  UREA NITROGEN change from baseline <−5%, percent of patients: (34.3%)
  UREA NITROGEN change from baseline >5%, number of patients: 10
  UREA NITROGEN change from baseline >5%, percent of patients: (28.6%)
  UREA NITROGEN change from baseline −5% <= and <=5%, number of patients: 6
  UREA NITROGEN change from baseline −5% <= and <=5%, percent of patients: (17.1%)
Week 20
  CREATININE (RATE BLANKED) change from baseline <−5%, number of patients: 9
  CREATININE (RATE BLANKED) change from baseline <−5%, percent of patients: (25.7%)
  CREATININE (RATE BLANKED) change from baseline >5%, number of patients: 10
  CREATININE (RATE BLANKED) change from baseline >5%, percent of patients: (28.6%)
  CREATININE (RATE BLANKED) change from baseline −5% <= and <=5%, number of patients: 8
  CREATININE (RATE BLANKED) change from baseline −5% <= and <=5%, percent of patients: (22.9%)
  GFR change from baseline <−5%, number of patients: 10
  GFR change from baseline <−5%, percent of patients: (28.6%)
  GFR change from baseline >5%, number of patients: 10
  GFR change from baseline >5%, percent of patients: (28.6%)
  GFR change from baseline −5% <= and <=5%, number of patients: 7
  GFR change from baseline −5% <= and <=5%, percent of patients: (20.0%)
  UREA NITROGEN change from baseline <−5%, number of patients: 13
  UREA NITROGEN change from baseline <−5%, percent of patients: (37.1%)
  UREA NITROGEN change from baseline >5%, number of patients: 7
  UREA NITROGEN change from baseline >5%, percent of patients: (20.0%)
  UREA NITROGEN change from baseline −5% <= and <=5%, number of patients: 7
  UREA NITROGEN change from baseline −5% <= and <=5%, percent of patients: (20.0%)
Week 24
  CREATININE (RATE BLANKED) change from baseline <−5%, number of patients: 8
  CREATININE (RATE BLANKED) change from baseline <−5%, percent of patients: (22.9%)
  CREATININE (RATE BLANKED) change from baseline >5%, number of patients: 9
  CREATININE (RATE BLANKED) change from baseline >5%, percent of patients: (25.7%)
  CREATININE (RATE BLANKED) change from baseline −5% <= and <=5%, number of patients: 9
  CREATININE (RATE BLANKED) change from baseline −5% <= and <=5%, percent of patients: (25.7%)
  GFR change from baseline <−5%, number of patients: 8
  GFR change from baseline <−5%, percent of patients: (22.9%)
  GFR change from baseline >5%, number of patients: 10
  GFR change from baseline >5%, percent of patients: (28.6%)
  GFR change from baseline −5% <= and <=5%, number of patients: 8
  GFR change from baseline −5% <= and <=5%, percent of patients: (22.9%)
  UREA NITROGEN change from baseline <−5%, number of patients: 17
  UREA NITROGEN change from baseline <−5%, percent of patients: (48.6%)
  UREA NITROGEN change from baseline >5%, number of patients: 7
  UREA NITROGEN change from baseline >5%, percent of patients: (20.0%)
  UREA NITROGEN change from baseline −5% <= and <=5%, number of patients: 2
  UREA NITROGEN change from baseline −5% <= and <=5%, percent of patients: (5.7%)
